Measurements published in the kinase profiling compilation of Christmann-Franck et al. (2016).

Legend:
Test in all cases: KINOMEscan competition binding
Settings in all cases: compound 1.0 µM
[1] = molecular target: GSK3A (human) (UniProt P49840)
[2] = molecular target: BMPR1A (human) (UniProt P36894)
[3] = molecular target: CSNK1A1L (human) (UniProt Q8N752)
[4] = molecular target: CSNK2A2 (human) (UniProt P19784)
[5] = molecular target: RAF1 (human) (UniProt P04049)
[6] = tested on: KIT (human), P10721 [V559D/V654A]
[7] = molecular target: SIK3 (human) (UniProt Q9Y2K2)
[8] = molecular target: MAP2K4 (human) (UniProt P45985)
[9] = molecular target: RIPK1 (human) (UniProt Q13546)
[10] = molecular target: ROS1 (human) (UniProt P08922)
[11] = molecular target: ZAP70 (human) (UniProt P43403)
[12] = molecular target: DYRK1B (human) (UniProt Q9Y463)
[13] = tested on: PIK3CA (human), P42336 [Q546K]
PIK3CA (human), P42336 [Q546K], sequence (P42336 whole entry Q546K, looked up): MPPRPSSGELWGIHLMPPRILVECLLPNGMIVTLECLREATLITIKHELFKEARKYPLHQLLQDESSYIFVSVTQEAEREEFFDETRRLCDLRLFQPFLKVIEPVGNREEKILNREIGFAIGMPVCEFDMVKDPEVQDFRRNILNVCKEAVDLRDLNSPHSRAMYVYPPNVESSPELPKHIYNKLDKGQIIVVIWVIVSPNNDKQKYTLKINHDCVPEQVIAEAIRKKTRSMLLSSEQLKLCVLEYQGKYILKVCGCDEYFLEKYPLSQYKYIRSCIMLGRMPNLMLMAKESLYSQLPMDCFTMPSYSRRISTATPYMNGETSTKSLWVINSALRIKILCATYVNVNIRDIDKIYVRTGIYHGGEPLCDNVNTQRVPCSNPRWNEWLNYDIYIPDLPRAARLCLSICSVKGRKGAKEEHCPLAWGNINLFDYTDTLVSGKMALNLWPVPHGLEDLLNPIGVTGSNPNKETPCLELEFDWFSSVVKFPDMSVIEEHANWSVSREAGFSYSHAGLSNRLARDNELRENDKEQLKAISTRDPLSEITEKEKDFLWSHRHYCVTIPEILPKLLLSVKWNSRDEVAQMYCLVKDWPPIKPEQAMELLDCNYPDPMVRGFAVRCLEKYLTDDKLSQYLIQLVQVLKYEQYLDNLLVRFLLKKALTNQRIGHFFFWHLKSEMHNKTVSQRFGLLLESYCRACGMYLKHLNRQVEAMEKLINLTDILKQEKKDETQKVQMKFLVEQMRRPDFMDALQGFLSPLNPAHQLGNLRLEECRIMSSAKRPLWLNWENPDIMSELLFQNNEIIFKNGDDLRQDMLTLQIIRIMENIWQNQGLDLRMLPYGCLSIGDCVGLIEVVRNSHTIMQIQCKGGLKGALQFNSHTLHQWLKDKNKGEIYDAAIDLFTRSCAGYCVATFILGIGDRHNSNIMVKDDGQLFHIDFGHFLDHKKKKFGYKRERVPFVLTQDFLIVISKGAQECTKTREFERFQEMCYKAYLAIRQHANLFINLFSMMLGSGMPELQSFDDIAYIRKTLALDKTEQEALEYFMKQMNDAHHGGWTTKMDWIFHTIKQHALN

[14] = molecular target: MYLK3 (human) (UniProt Q32MK0)
[15] = molecular target: BMPR1B (human) (UniProt O00238)
[16] = molecular target: MUSK (human) (UniProt O15146)
[17] = molecular target: CRK2 (P.falciparum) (UniProt P61075)
[18] = molecular target: GRK4 (human) (UniProt P32298)
[19] = molecular target: SLK (human) (UniProt Q9H2G2)
SLK (human), sequence (Q9H2G2 whole entry, looked up): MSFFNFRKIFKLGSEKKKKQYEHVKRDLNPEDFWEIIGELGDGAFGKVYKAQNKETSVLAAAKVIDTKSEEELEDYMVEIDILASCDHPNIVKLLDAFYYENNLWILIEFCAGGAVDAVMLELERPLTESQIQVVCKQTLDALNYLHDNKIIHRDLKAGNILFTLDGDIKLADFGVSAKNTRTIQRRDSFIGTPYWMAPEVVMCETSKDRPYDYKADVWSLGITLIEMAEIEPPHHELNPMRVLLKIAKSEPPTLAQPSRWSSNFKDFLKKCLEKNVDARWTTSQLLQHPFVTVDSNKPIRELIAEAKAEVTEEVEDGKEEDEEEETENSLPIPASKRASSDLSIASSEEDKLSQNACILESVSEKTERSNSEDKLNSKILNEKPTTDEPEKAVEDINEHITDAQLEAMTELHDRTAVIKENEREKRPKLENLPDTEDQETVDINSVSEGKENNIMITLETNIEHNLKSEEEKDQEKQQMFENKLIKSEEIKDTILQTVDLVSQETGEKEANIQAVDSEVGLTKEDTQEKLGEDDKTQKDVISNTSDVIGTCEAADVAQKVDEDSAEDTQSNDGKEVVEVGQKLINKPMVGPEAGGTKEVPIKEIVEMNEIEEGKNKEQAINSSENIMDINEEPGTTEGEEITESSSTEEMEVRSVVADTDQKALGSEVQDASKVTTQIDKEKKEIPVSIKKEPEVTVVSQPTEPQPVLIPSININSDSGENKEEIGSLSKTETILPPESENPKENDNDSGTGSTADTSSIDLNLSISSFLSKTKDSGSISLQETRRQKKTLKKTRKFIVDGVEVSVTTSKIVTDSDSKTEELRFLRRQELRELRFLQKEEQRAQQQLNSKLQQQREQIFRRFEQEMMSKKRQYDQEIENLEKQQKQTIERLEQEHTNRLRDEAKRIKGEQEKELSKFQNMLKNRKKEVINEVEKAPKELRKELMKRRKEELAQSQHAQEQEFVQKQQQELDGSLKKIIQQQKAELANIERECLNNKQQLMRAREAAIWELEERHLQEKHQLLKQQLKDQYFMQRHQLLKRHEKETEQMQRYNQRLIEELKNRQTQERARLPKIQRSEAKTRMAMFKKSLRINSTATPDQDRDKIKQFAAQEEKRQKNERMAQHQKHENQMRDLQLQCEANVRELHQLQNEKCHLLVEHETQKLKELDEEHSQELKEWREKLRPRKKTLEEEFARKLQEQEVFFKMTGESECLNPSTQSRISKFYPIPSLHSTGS

[20] = molecular target: SGK3 (human) (UniProt Q96BR1)
[21] = molecular target: MAP3K9 (human) (UniProt P80192)
[22] = molecular target: CDK18 (human) (UniProt Q07002)
[23] = molecular target: TRPM6 (human) (UniProt Q9BX84)
[24] = molecular target: EPHA6 (human) (UniProt Q9UF33)
[25] = molecular target: WEE1 (human) (UniProt P30291)
[26] = molecular target: MAPK3 (human) (UniProt P27361)
[27] = tested on: KIT (human), P10721 [L576P]
[28] = molecular target: PKMYT1 (human) (UniProt Q99640)
[29] = molecular target: GRK7 (human) (UniProt Q8WTQ7)
GRK7 (human), sequence (Q8WTQ7 whole entry, looked up): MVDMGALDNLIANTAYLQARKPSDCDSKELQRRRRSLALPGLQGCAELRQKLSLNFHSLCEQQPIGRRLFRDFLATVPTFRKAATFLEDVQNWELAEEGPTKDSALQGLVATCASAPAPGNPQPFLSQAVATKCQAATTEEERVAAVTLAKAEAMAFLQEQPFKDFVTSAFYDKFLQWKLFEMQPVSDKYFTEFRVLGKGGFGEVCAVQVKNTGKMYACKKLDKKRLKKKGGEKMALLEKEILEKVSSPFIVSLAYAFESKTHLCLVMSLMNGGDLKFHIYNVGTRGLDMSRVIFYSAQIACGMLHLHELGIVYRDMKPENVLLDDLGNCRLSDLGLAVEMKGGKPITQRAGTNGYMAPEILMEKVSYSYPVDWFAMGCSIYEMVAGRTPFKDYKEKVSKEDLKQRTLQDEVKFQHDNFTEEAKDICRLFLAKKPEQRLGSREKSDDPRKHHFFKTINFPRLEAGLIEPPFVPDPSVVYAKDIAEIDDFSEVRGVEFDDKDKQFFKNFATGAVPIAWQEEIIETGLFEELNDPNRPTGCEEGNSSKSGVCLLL

[30] = molecular target: IRAK3 (human) (UniProt Q9Y616)
[31] = molecular target: PRKCE (human) (UniProt Q02156)
[32] = molecular target: PRKG1 (human) (UniProt Q13976)
[33] = molecular target: TYK2 JH2 pseudokinase (human) (UniProt P29597)
[34] = molecular target: MAP2K7 (human) (UniProt O14733)
[35] = molecular target: MST1R (human) (UniProt Q04912)
[36] = tested on: EGFR (human), P00533 [747-751 del / S ins]
[37] = molecular target: ITK (human) (UniProt Q08881)
ITK (human), sequence (Q08881 whole entry, looked up): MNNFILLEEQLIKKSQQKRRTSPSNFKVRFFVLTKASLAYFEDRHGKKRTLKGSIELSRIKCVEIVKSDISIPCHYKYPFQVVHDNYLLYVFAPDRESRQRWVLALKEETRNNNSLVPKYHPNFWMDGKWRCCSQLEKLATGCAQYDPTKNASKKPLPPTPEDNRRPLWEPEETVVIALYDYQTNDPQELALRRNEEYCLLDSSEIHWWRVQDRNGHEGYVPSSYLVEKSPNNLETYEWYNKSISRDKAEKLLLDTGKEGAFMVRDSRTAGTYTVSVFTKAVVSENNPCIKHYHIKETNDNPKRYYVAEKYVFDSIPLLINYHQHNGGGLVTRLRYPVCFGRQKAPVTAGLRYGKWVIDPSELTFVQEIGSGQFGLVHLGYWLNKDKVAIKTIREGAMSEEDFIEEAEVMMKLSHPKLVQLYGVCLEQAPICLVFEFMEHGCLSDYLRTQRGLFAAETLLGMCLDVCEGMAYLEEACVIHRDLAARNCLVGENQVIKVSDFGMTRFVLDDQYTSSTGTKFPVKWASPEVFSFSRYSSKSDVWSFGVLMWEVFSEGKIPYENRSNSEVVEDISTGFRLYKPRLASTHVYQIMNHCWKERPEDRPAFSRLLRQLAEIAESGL

[38] = molecular target: TAOK1 (human) (UniProt Q7L7X3)
[39] = molecular target: TLK2 (human) (UniProt Q86UE8)
[40] = molecular target: MARK3 (human) (UniProt P27448)
[41] = molecular target: PLK2 (human) (UniProt Q9NYY3)
PLK2 (human), sequence (Q9NYY3 whole entry, looked up): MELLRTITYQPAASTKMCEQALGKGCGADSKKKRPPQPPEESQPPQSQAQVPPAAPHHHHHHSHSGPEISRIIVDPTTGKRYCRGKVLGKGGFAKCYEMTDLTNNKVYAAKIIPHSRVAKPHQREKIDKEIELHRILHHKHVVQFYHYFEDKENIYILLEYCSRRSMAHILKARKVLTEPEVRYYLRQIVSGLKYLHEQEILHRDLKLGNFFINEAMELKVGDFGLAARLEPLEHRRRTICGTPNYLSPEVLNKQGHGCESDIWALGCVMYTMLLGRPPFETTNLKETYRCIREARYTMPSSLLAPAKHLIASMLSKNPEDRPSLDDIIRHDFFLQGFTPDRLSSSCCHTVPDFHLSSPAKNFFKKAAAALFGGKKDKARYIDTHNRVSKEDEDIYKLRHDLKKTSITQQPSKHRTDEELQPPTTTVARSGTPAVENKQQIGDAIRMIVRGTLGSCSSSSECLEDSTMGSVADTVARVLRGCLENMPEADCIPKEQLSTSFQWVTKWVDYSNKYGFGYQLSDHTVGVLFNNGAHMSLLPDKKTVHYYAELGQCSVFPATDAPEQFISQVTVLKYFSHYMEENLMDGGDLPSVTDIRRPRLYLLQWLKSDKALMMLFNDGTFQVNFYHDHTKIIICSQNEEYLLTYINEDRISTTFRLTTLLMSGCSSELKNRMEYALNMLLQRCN

[42] = molecular target: DYRK1A (human) (UniProt Q13627)
[43] = molecular target: PRKCD (human) (UniProt Q05655)

BMPR1A (human), sequence (P36894 whole entry, looked up): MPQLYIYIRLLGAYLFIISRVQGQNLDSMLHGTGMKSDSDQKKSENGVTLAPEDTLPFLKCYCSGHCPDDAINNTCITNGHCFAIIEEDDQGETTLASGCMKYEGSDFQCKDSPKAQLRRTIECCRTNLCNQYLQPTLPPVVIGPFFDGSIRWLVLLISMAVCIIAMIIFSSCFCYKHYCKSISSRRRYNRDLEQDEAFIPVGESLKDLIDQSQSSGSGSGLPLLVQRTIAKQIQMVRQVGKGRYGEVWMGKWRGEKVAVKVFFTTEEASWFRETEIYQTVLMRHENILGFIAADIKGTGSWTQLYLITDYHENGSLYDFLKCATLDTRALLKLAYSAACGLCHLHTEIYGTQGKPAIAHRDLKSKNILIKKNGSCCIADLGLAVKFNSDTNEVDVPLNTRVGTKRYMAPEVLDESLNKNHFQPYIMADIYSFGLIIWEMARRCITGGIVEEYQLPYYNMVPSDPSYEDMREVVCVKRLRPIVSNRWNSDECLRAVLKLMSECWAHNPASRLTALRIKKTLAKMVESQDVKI
CSNK2A2 (human), sequence (P19784 whole entry, looked up): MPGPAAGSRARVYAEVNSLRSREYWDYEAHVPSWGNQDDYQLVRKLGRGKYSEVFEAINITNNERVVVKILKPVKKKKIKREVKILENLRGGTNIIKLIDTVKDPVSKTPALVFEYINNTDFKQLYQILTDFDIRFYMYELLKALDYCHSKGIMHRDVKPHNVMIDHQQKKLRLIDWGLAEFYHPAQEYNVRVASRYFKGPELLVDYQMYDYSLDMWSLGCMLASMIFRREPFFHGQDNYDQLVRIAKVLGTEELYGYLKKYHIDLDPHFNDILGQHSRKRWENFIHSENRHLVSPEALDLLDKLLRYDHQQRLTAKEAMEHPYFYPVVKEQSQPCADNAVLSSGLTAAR

Q: With `COCCNCCCn1c(C(=O)CF)c(-c2ccc(C)cc2)c2c(N)ncnc21` as the compound, how does the kinase still bound, per cent of control [1] read?
A: 100%

Q: What about the kinase still bound, per cent of control [2] of the same compound?
A: 100%

Q: And the kinase still bound, per cent of control [3]?
A: 100%

Q: What about the kinase still bound, per cent of control [4] of the same compound?
A: 99%

Q: What about the kinase still bound, per cent of control [5] of the same compound?
A: 99%

Q: What about the kinase still bound, per cent of control [6] of the same compound?
A: 94%

Q: What about the kinase still bound, per cent of control [7] of the same compound?
A: 91%

Q: And the kinase still bound, per cent of control [8]?
A: 78%

Q: And the kinase still bound, per cent of control [9]?
A: 100%

Q: And the kinase still bound, per cent of control [10]?
A: 100%

Q: What about the kinase still bound, per cent of control [11] of the same compound?
A: 85%

Q: And the kinase still bound, per cent of control [12]?
A: 96%

Q: What about the kinase still bound, per cent of control [13] of the same compound?
A: 100%

Q: And the kinase still bound, per cent of control [14]?
A: 96%

Q: And the kinase still bound, per cent of control [15]?
A: 85%

Q: And the kinase still bound, per cent of control [16]?
A: 100%

Q: And the kinase still bound, per cent of control [17]?
A: 100%

Q: What about the kinase still bound, per cent of control [18] of the same compound?
A: 85%

Q: And the kinase still bound, per cent of control [19]?
A: 100%

Q: What about the kinase still bound, per cent of control [20] of the same compound?
A: 79%

Q: What about the kinase still bound, per cent of control [21] of the same compound?
A: 100%

Q: And the kinase still bound, per cent of control [22]?
A: 100%

Q: And the kinase still bound, per cent of control [23]?
A: 81%

Q: And the kinase still bound, per cent of control [24]?
A: 82%

Q: What about the kinase still bound, per cent of control [25] of the same compound?
A: 94%

Q: And the kinase still bound, per cent of control [26]?
A: 98%

Q: What about the kinase still bound, per cent of control [27] of the same compound?
A: 71%

Q: What about the kinase still bound, per cent of control [28] of the same compound?
A: 86%

Q: What about the kinase still bound, per cent of control [29] of the same compound?
A: 100%

Q: And the kinase still bound, per cent of control [30]?
A: 86%

Q: What about the kinase still bound, per cent of control [31] of the same compound?
A: 100%

Q: What about the kinase still bound, per cent of control [32] of the same compound?
A: 100%

Q: And the kinase still bound, per cent of control [33]?
A: 100%

Q: What about the kinase still bound, per cent of control [34] of the same compound?
A: 78%

Q: And the kinase still bound, per cent of control [35]?
A: 100%

Q: What about the kinase still bound, per cent of control [36] of the same compound?
A: 84%

Q: And the kinase still bound, per cent of control [37]?
A: 100%

Q: What about the kinase still bound, per cent of control [38] of the same compound?
A: 100%

Q: And the kinase still bound, per cent of control [39]?
A: 95%

Q: And the kinase still bound, per cent of control [40]?
A: 100%

Q: And the kinase still bound, per cent of control [41]?
A: 96%

Q: And the kinase still bound, per cent of control [42]?
A: 100%

Q: And the kinase still bound, per cent of control [43]?
A: 90%
